Measured values as given in EP0526502B1, “PHENOLIC AMINE DEPIGMENTING AND ANTIMELANOMA AGENTS” (The Governors of the University of Alberta, priority 1990, dated 1991).
Several values for one entry are separate records, joined by “and”; a condition that tells them apart may be missing. Equal values may be shown once.

What was measured:
follicular melanocytes = assay: Depigmentation of new hair after plucking (PTCA/eumelanin content of hair follicles); type: in vivo, C57BL/6J black mice; conditions: for PTCA Content / Depigmentation: hair harvested day 22
Description: Breeding pairs of C57BL/6J black mice were purchased from Jackson Laboratory, Bar Harbor, Maine. Female progeny were used in this testing when approximately 8 weeks old and weighing 17 grams.
Black hairs were plucked manually from the back of the mice to initiate new anagen growth and activate follicular melanocytes with increased tyrosinase activity. Thirty mice were randomized into 6 groups of 5 (1 control and 1 for each compound). Starting on day 1, daily for 14 days the agent was injected i.p. or was infiltrated s.c. in an area where hair follicles had been plucked; the dose was 300 mg/kg body weight.
In the same 30 mice, hair follicles were harvested on day 22 (early telogen phase) and their eumelanin content analyzed. Details of the assay, including chemical degration of melanin and high-performance liquid chromatography (HPLC) were as described in Ito et al, "Quantitative Analysis of Eumelanin and Pheomelanin in Hair and Melanosomes" J. Invest. Dermatol 80:268-272, 1983. Briefly, a 10-mg hair sample is homogenized in water at a concentration of 10 mg/ml; the 200-»l homogenate is transferred to a screw-capped test tube, mixed with 1M H₂SO₄ (800 »L) and oxidized with 3% KMnO₄. The product, pyrrole-2,3,5-tricarboxylic acid (PTCA), is analyzed by HPLC with a UVL detector; samples are measured in duplicate. The eumelanin content is expressed as PTCA (ng/mg) against the PCTA content of BALB/c albino mice as control (≦ 10 ng/mg, the background value with our method, in which 1 ng corresponds roughly to a eumelanin content of 50 ng), and the degree of depigmentation is expressed as a percentage: (PTCA content of control sampleminusPTCA content of experimental sample)/(PCTA content of control sample) x 100 [formula] .

[1] = Acute toxicity / lethal dose and maximum tolerable dose; conditions: mouse, in vivo
Description: 3:1-85 1972. In accordance with this Protocol, ten to fifteen mice were used in each test group. They were weighed and randomized at day one after s.c. inoculation of B16 melanoma cells. From day five, the phenolic melanin precursors were administered i.p. daily for nine days. The test compounds were dissolved in normal saline, and sterilized by heating to 100°C for 2 minutes. […] They were administered i.p. with the following doses: 400 mg/Kg - 4-S-CAP; 200 to 300 mg/Kg - 4-S-CAP; and 200 to 1200 mg/Kg - N-Ac-4-S-CAP. A catalytic amount of L-dopa, 25 mg/Kg and antidecarboxylase, carbidopa, 400 mg/Kg, were also administered. Carbidopa was given one hour prior to L-dopa administration. DTIC (NSC 4538) was used as a control drug at a dose of 60 mg/Kg. Acute toxicity of 4-S-CP and 4-S-CAP was evaluated from 100 to 1600 mg/Kg.
The B16 mouse melanoma was maintained by s.c. inoculation of tumour cells into the back of C57BL7J mice (5 to 6 weeks, female). […] Briefly, excised tumours were homogenized in normal saline. The homogenized tumour cells were then passed through a sterile 80 mesh stainless steel screen, washed with normal saline, centrifuged (500 g. for 10 minutes) and resuspended in normal saline. Suspensions of viable melanoma cells at the concentration of 1 x 10⁶ per 0.1 ml were inoculated s.c. into both the right and left inguinal areas of C57BL/6J mice (female, 5 to 6 weeks old, 18 to 20 gm).

melanocytes = assay: Light and electron microscopy of melanocytes in regrowing hair follicles; type: in vivo, mice; conditions: for electron microscopy of hair follicles: melanocytes and melanosomes: i.p. injection for 10 days
Description: In six groups of 4 mice (1 control and 1 for each compound) were treated daily with the control or compound injected i.p. The compounds tested were 4-S-CAP, N-Ac-4-S-CAP and α-Me-4-S-CAP. Samples of skin and regrowing hair follicles were excised under brief general anaesthesia on day 10 (late anagen phase), fixed in Karnovsky's solution (2.5% glutaraldehyde and 2.5% paraformaldehyde in 0l1 M cacodylate buffer), and refixed in 1% osmium tetroxide in cadodylate buffer. Tissues were stained en bloc with 1.5% uranyl acetate in o.1 M veronal buffer for 30min, dehydrated in graded ethanol solutions, embedded in epoxy resin, and sectioned with a Potter-Blum ultramicrotome MT II. Sections 1.0 »m thick were stained with methylene blue for light microscopy, thin sections were stained with led citrate for electron microscopy.

[2] = acute toxicity evaluated from 100 to 1600 mg/Kg; Miura et al; cited from earlier work
Mushroom tyrosinase = Mushroom tyrosinase (Agaricus bisporus, UniProt C7FF04); assay: Enzyme kinetics with tyrosinase (substrate disappearance by HPLC, Lineweaver-Burk); type: biochemical; conditions: result in words
Chain of Mushroom tyrosinase (C7FF04 1-392): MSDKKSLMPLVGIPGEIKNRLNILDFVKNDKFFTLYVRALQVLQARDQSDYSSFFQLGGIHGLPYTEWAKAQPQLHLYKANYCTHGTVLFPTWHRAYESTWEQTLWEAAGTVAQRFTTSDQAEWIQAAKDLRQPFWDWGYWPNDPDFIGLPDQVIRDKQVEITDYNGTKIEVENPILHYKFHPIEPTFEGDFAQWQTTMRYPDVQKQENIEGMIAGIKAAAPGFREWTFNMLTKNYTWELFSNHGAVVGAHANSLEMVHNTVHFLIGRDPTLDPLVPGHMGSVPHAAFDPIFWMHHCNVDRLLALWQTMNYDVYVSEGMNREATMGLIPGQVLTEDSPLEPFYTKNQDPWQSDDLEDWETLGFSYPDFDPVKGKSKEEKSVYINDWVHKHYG
Description: (§1) Mushroom tyrosinase (400 units/mg) and plasma MAO (1000 units/gm) were obtained from Sigma Chemical Co. (St. Louis, MO, USA). A reaction mixture consisted of a substrate of 7 to 8 different concentrations (40 to 500 »M for mushroom tyrosinase and 20 to 200 »M for MAO) and of either mushroom tyrosinase (2.5 »g) or MAO (10 »g) in 1.0 mL of 0.05 M sodium phosphate buffer, pH 6.8 and 7.4 respectively. The reactions were carried out at 37°C in a shaking water bath, and stopped by taking 100 »L of the reaction mixture and adding it to 900 »L of 0.4 M HCLO₄. The disappearance of substrate was followed using HPLC (high pressure liquid chromatography) Km and Vmax values were calculated from the Lineweaver-Burk plots.

B16 melanoma = assay: In vivo growth inhibition of s.c. inoculated B16 melanoma; design: species or system C57BL/6J mice; conditions: 200 mg/Kg i.p. daily for nine days, day 12 or 13
Description: The in vivo antimelanoma effect of the compounds were evaluated by percent growth inhibition of inoculated tumour (%g.i.). The percent g.i. was computed from the mean tumour volume at day 12 or 13 of the experiments; i.e., 100 x (1- treated group/control group). […] To further examine whether a minimal dose of N-Ac-4-S-CAP, 200 mg/Kg has an antimelanoma effect, three groups of mice were treated with N-Ac-4-S-CAP. […] One of the advantages of N-Ac-4-S-CAP over 4-S-CAP was that it had much higher LD⁵⁰ (as high as 1400 mg/Kg of body weight, and therefore a greater range of safety).

B16F10 melanoma = assay: Melanoma-colony formation in the lungs; type: in vivo, mice; conditions: 300 mg/kg i.p. daily for 14 days from day five; lungs excised day 26
Description: Murine B16F10 melanoma cell line with a strong metastatic property to form tumour colonies in the lungs was obtained from Dr. Longenecker, Department of Immunology, University of Alberta. Such cell line is well recognized and readily available as reported in Miura et al, supra. The cells were grown in T-75 flasks in dulbecco's MEM available from Gipco Lab Inc., Grand Island, New York, supplemented with 10% fetal calf serum, also obtained from Gipco, penicillin (100 »/ml) and streptomycin (100 »g/ml). The cells were incubated at 37°C in humidified atmosphere of 5% CO₂ in air. The cells were harvested by applying a thin layer of 0.25% trypsin solution in EDTA, washed and resuspended in cold N saline solution. Viable cells were identified by trypan blue dye exclusion and counted. The cell suspension was diluted to the desired concentration. Three groups of mice were studied using a control 4-S-CAP and N-Ac-4-S-CAP as the active agents in the treatment. On day zero, the mice were inoculated via the lateral tail vein with 5 x 10⁴ cells in 0.2 ml of N saline. The test drugs were dissolved in normal saline, sterilized by membrane filtration, and administered in a dose of 300 mg/Kg (4-S-CAP) or 900 mg/Kg (N-Ac-4-S-CAP); starting on day five, the control solution or drug was injected i.p. daily for 14 days. On day 26, the mice were killed by cervical dislocation, their lungs were removed, and the number of melanoma colonies was counted under a dissecting microscope. The results were expressed as percentage reduction in the number of colonies: [a - b/a] x 100, where a = colonies in control group and b = colonies in experimental group.

plasma MAO = biological target: T1, plasma MAO (Bos taurus, UniProt Q29437); assay: Enzyme kinetics with monoamineoxidase (substrate disappearance by HPLC, Lineweaver-Burk); type: biochemical; conditions: result in words
T1 construct: purchased Sigma Chemical Co. (St. Louis, MO, USA)
T1 sequence (Q29437 17-762): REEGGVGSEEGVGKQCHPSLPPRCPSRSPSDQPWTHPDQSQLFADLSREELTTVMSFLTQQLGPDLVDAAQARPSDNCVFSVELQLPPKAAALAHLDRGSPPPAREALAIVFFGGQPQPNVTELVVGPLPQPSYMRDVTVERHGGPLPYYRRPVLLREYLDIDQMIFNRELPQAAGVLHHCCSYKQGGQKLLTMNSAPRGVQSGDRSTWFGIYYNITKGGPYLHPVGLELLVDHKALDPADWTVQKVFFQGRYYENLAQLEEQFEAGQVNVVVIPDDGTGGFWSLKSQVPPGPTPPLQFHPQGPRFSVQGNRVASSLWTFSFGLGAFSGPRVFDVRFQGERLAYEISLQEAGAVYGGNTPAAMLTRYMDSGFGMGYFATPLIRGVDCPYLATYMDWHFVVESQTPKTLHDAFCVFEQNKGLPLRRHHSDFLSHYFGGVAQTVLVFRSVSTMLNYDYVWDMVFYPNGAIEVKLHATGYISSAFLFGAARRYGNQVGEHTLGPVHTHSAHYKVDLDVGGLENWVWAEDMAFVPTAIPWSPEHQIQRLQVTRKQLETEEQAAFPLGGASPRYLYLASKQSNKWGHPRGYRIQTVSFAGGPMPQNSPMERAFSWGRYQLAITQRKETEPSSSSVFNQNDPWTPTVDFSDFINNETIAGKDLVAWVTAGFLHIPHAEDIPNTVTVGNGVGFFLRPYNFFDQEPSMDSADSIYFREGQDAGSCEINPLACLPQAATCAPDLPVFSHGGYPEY
Description: as §1

[3] = Route s.c., 300 mg/kg daily for 14 days
[4] = Route s.c., 300 mg/kg daily for 14 days, 300 mg/kg
[5] = Route: i.p., 300 mg/kg daily for 14 days
[6] = Route: i.p., 300 mg/kg daily for 14 days, 300 mg/kg

Row | SMILES | PTCA Content (follicular melanocytes; [3]) | Depigmentation (follicular melanocytes; [4]) | PTCA Content (follicular melanocytes; [5]) | Depigmentation (follicular melanocytes; [6]) | electron microscopy of hair follicles: melanocytes and melanosomes (melanocytes) | Depigmentation (follicular melanocytes; [3]) | Depigmentation (follicular melanocytes; [5]) | lethal dose [2] | further results
1 | CC(N)CSc1ccc(O)cc1 (stereo not drawn) [α-Me-4-S-CAP, α-methyl-4-S-CAP] | 557.9 ± 47.2 ng/mg | 58% and 57.9% | 121.3 ± 81.9 ng/mg | 89% and 88.9% | contained immature melanosomes at stages II and III | – | – | – | side-effects (follicular melanocytes; 300 mg/kg daily for 14 days, i.p. or s.c., irritation seen after s.c. administration): some irritation of the skin in the plucked area; per single dose toxicity levels [1]: ~500 mg/kg of body weight
2 | CN(C)CCSc1ccc(O)cc1 [N,N-DiMe-4-S-CAP, N,N'-dimethyl-4-S-CAP] | 1023.4 ± 110.1 ng/mg | – | 1009.0 ± 193.5 ng/mg | – | – | 6.1% | 7.3% | – | visible pigmentation of new hair (follicular melanocytes; i.p. or s.c. route, result in words): no visible changes in pigmentation in new follicles
3 | N[C@@H](CSc1ccc(O)cc1)C(=O)O [4-S-CP, 4-S-cysteinylphenol] | – | – | – | – | – | – | – | 600 mg/kg | –
4 | NCCCSc1ccc(O)cc1 [4-S-HomoCAP, 4-S-homo-CAP] | 397.7 ± 279.3 ng/mg | – | 956.7 ± 77.9 ng/mg | – | – | 63.5% | 12.1% | – | –
5 | NCCSc1ccc(O)cc1 [4-S-CAP, 4-S-cysteaminylphenol, reference compound] | 458.3 ± 107.6 ng/mg | 47% and 46.9% | 146.1 ± 72.4 ng/mg | 87% and 86.6% | contained immature melanosomes at stages II and III | – | – | 400 mg/kg | tyrosinase substrate (Mushroom tyrosinase): a substrate for both plasma MAO and tyrosinase; %Gi (B16 melanoma; Experiment I): 54.0%; Tumour Volume (B16 melanoma; Experiment I): 239 ± 39 mm^3; %Gi (B16 melanoma; Experiment II): 25.1%; Tumour Volume (B16 melanoma; Experiment II): 405 ± 61 mm^3; No. of Colonies % control (B16F10 melanoma): 30% and 32.4%; No. of Colonies per pair of lungs (B16F10 melanoma): 28.0 ± 14.5; substrate for plasma MAO (plasma MAO): a substrate for both plasma MAO and tyrosinase; light microscopy of hair follicles: functioning melanocytes and melanin pigments (melanocytes; i.p. daily, day 10 (late anagen phase)): the hair follicles contained functioning melanocytes and melanin pigments transferred into keratonocytes, although they were much sparser than in the controls
